Reference: patent publication US9622469B2, “Crosslink breakers for preservation of biological substances” (priority 2013, dated 2017)
Entries after “also recorded” stand apart in the source; their conditions may differ. Marks after values point to notes of the source that are not given here.

Assays:
[1] = Cleavage of PPD (3) to benzoic acid by NHC precursors, Method B (MeCN co-solvent); assay type: biochemical
Procedure: Dicarbonyl cleavage reactions were performed using either the method described in Vasan et al., An agent cleaving glucose-derived protein crosslinks in vitro and in vivo, Nature (1996) Vol. 382, pp. 275-278 (Method A) or a modified method with MeCN as a co-solvent (Method B).
(§1) 60 mM solution of dicarbonyl substrate (45 μmol) in MeCN (0.75 ml) was added to 20 mM solution of NHC (15 μmol) in 0.15 M pH 7.4 sodium phosphate buffer (0.75 ml) and kept stirred at 37° C. At stated times, 75 μl aliquots were taken, diluted with 50% MeCN/H2O (425 μl) and analyzed by LCMS with 2,4-dihydroxyquinoline (248 μM) as an internal standard. The cleavage products were quantified by peak integration against the calibration curves.
Thus, our first goal in these studies was to assess the ability of various NHC precursors to induce the degradation of the dicarbonyl model substrate (PPD, 3). To this end, we screened the thiazolium (4-6), benzothiazolium (7), triazolium (8,9) and imidazolium (10) halide substructures shown in Table 1.

[2] = NHC-mediated cleavage of benzil (15), Method B; assay type: biochemical; settings: LCMS, with respect to dicarbonyl
Procedure: as §1
Our efforts to investigate the scope of thiazolium salt-mediated reactions with dicarbonyls began with bis-alkyl diketone 14 (Table 3, Entry 1). This substrate is cleaved cleanly by 2, and affords acid 18 in 82% yield. NHC precursor 4, on the other hand, provides 18 in only 14% yield (Entry 2). The efficiency of dicarbonyl cleavage reactions decreases substantially in the case of benzil (15, Entry 3), which affords benzoic acid in 14% and 1% yield following exposure to 2 and 4, respectively.

[3] = NHC-mediated reaction with α-keto aldehyde methylglyoxal (17), Method B; assay type: biochemical; settings: isolated yield with respect to 2
Procedure: as §1
Four diastereomers (ALT-MGO-1 through ALT-MGO-4) were obtained with a similar method to ALT-PG using 2 (100 mg, 0.37 mmol) and 40% methylglyoxal (MOO, 17) solution (0.2 ml, 1.3 mmol, 3.5 eq). Purification was performed by HPLC (9-19% MeCN over 32 min), and the lyophilization of fractions afforded the title compounds as white solids (96% combined yield). See Supplementary Material for characterization data.
Reactions involving α-keto aldehyde derivatives 16 and 17 followed an unexpected course. Treatment of these substrates with 2 led to instantaneous, high-yield production of a diastercomeric mixture of cycloadducts (19 and 20) that decompose to complex mixtures under the reaction conditions with half-lives of approximately 3 h Structures were determined based on in-depth NMR analysis (see Supplementary Material).

[4] = Trapping of methylglyoxal under physiological conditions (PBS); assay type: biochemical; settings: 37° C., 24 hours, MGO at pathologically relevant concentration (4-6 μM)
Procedure: For trapping under physiological conditions (FIG. 5), 12.5 μl of 2 (40 mM stock) and 7.7 μl of MGO (6.5 mM stock) were added to PBS (4.98 ml) and kept stirred at 37° C. At stated times, 445 μl of the reaction mixture was taken, quenched with 1 M HCl (5 μl) and analyzed by LCMS after adding 50 μl of 3 mM 4-methoxybenzhydrol as an internal standard. Yield of ALT-MGO (20) was determined by peak integration (m/z=304) against a calibration curve.
Recognizing the reaction conditions employed above were non-physiological, we wanted to test if ALT-711 could efficiently trap methylglyoxal (MGO, 17) at a pathologically relevant concentration (4-6 μM). We obtained ALT-MOO adduct (20) in PBS with a 53% yield at 24 hours (FIG. 5B). […] The trapping of MGO by ALT-711 may be the mechanism for the observed effects.

mouse RBC = assay: Storage of leukoreduced mouse blood in CPDA-1 at 4° C.: hemolysis and intact RBC count; assay type: cell-based; settings: CPDA-1 buffer; for RBC viability / intact RBCs (hemocytometer): 13 days
Procedure: FIG. 1 illustrates OCR6043-mediated prolonging of the integrity of stored RBCs. Leuko reduced mouse blood was stored under FDA-approved storage conditions (CPDA-1 buffer at 4° C.) for up to 13 days, in either OCR6043, control compound (structurally similar to OCR6043, but nonfunctional as a AGE crosslink breaker), or without any additive.
This solution was stored at 4° C. according to FDA-approved conditions for 13 days. […] The steps to collect HOD blood from mice and the addition of the FDA-approved storage buffer CPDA are described in Hendrickson et al., Transfusion of fresh murine red blood cells reverses adverse effects of older stored red blood cells, Transfusion (2011) Vol. 12, pp. 2695-2702.
We also counted the intact RBCs using a hemocytometer after 13 days of storage as also depicted in FIG. 1.

[5] = tested on: AGE precursor (α-dicarbonyl) on RBCs; assay: AGE precursor (α-dicarbonyl) levels on stored RBCs (dicarbonyl-specific fluorophore); assay type: cell-based, mouse; settings: typical storage conditions, up to 14 days
Procedure: (§2) Leuko-reduced mouse blood was stored under typical storage conditions for up to 14 days, in either OCR6043, control compound, or without any treatment. FIG. 2A illustrates an analysis of glucose in the serum from the stored blood was evaluated using a glucose oxidase enzymatic assay. […] FIG. 2B illustrates the AGE precursor levels on RBCs were measured using a dicarbonyl-specific fluorophore that was developed in-house. The time dependent increase in the AGE precursor levels was dampened in the presence of OCR6043. FIG. 2C illustrates mouse blood that was stored for 14 days, was evaluated for its immunogenicity upon transfusion, by testing for IgGs against an alloantigen on the RBCs (HOD=HEL-OVA-Duffy).

circulating stored RBCs = assay: Post-transfusion recovery of stored RBCs (flow cytometry); assay type: in vivo, mouse; settings: blood stored 14 days; 24 hours after transfusion; listed as OCR6043
Procedure: as §2
Using the transfusion methodology described in Hendrickson et al., it was possible to identify the surviving circulating RBCs using flow cytometry.

[6] = rats; cited from earlier work

SMILES: Cc1sc[n+](CC(=O)c2ccccc2)c1C.[Cl-] [Compound 2]
- Benzoic acid formation from 3 (in words) ([1]; Method B screen of NHC precursors): highest overall yield
- Combined % Yield (PhCO2H) ([1]; co-solvent MeCN, Method B, LCMS, with respect to dicarbonyl): 61%
- % Yield of PhCO2H from substrate 15 (benzil) [2]: 14%
- % Yield of cycloadduct 20 from substrate 17 [3]: 96^b %
- Yield of ALT-MGO adduct (20) [4]: 53%
- RBC viability / intact RBCs (hemocytometer) (mouse RBC; listed as ALT-711): higher levels of intact RBCs
- RBC viability / intact RBCs (hemocytometer) (mouse RBC; listed as OCR6043): superior cell viability
- Hemolysis of stored blood (supernatant appearance) (mouse RBC; up to 13 days, 12 mM): unhemolyzed
- Time dependent increase in AGE precursor levels on RBCs [5]: dampened
- Cell survival of transfused stored RBCs versus untreated stored blood (circulating stored RBCs): two-fold increase; also recorded: twofold increase
- MGO levels and MGO-induced glucose intolerance [6]: lowered MOO levels and attenuated MOO-induced glucose intolerance
